Laboratory results from patent US8729053B2, “Nuclear factor kappa B pathway inhibitor composition and use of same” (The United States of America, as represented by the …, priority 2008, dated 2014).
Structures can show the parent of a compound that is named as a salt.

Key:
IKKα/β = test: Immunoblot of phosphorylated IKKα/β in HEK293 cells; format: cell-based
Experimental: To measure endogenous level of several proteins in response to TPA induction and compound I, HEK293 cells were lysed with RIPA buffer (10 mM Tris-HCl pH 7.5, 1 mM EDTA, 0.1% sodium dodecyl sulfate, 0.1% deoxycholate, and protease inhibitor). Whole cell extracts were subjected to immunoblot analysis with the following antibodies: p65 (F-6), p50 (E-10), p52 (C-5), RelB (C-19), IκBα (C-21), PCNA (F-2) were obtained from Santa Cruz Biotechnology (Santa Cruz, Calif.). IKKα, IKKβ, IKKγ, phospho-IκBα, phospho-IKKα/β, phospho-IKKγ, pohospho-Stat3 (Tyr 705 and Ser 727), phospho-p65 (Ser536 and Ser276), phospho-p44/42, phospho-JNKs were purchased from Cell Signaling (Danvers, Mass.), and α-tubulin from Sigma (St. Louis, Mo.). Nuclear and cytoplasmic extracts were prepared with HEK293 cells by NE-PER Nuclear and Cytoplasmic Extraction Reagents (Pierce Biotechnology, Rockford, Ill.) according to the manufacturer's protocol.
To characterize the activity of compound I in targeting events upstream of NFκB, endogenous levels of kinases involved in NFκB activation were examined by immunoblot analysis. The well-established upstream regulators of NFκB activation are IKKα, IKKβ, and IκBα. […] Moreover, the phosphorylation of IκBα was inhibited even at 1.1 μM showing dose-dependent decrease by compound I pretreatment. […]

IKKβ [1] = target: T1, IKKβ (Homo sapiens, UniProt O14920); test: Off-chip incubation mobility-shift kinase assay, IKKβ; format: biochemical
T1 construct: purchased Calbiochem
T1 sequence (O14920 1-756): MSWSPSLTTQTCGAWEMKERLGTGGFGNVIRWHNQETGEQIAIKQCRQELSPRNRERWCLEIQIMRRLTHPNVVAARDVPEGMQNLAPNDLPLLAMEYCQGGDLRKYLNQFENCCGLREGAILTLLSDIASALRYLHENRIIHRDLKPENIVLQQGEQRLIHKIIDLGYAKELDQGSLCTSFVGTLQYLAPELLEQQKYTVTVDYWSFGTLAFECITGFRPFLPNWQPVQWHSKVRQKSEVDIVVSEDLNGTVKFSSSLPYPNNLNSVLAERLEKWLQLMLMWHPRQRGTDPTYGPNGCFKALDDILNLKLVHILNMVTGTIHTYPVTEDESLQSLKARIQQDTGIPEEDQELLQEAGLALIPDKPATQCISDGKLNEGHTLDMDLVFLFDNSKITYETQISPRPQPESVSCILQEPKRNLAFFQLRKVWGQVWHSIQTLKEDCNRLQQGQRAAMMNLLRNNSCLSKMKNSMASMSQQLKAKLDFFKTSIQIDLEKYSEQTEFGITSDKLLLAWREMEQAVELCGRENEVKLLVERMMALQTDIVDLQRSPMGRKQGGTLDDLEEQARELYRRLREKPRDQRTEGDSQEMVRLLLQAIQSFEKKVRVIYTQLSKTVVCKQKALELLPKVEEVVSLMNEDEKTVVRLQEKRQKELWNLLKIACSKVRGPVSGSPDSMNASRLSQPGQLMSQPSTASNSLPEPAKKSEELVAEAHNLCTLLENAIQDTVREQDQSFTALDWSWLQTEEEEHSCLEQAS
Experimental: (§1) In an attempt to determine whether compound I interferes with ATP binding to the catalytic site, the activity of compound I was measured with fully activated, phosphorylated IKKα or IKKβ. […] However, whether this compound interacts outside of the ATP binding pocket of IKK as an ATP non-competitive inhibitor similar to BMS-345541 is unknown. […] Luciferase activities with TPA induction alone were set at 100% and the relative activities with TPA in the presence of compounds are shown.

IKKβ [2] = target: T1, IKKβ; test: K-LISA IKKβ Inhibitor Screening Kit in vitro assay; format: biochemical; details: 0.1 to 100 μM, incubated with ATP
Experimental: as §1

estrogen receptor = test: ERE promoter luciferase reporter assay in ER-positive breast cancer cells; format: cell-based
Experimental: In order to evaluate the potential therapeutic activity of the compound, tests for the biological activity of compound I were performed. The compound is non-toxic to MCF-7, T47D, and MDA-MB-231 breast cancer cells as estimated by XTT assay at 10 μM. To determine the effects of compound I on invasion by breast cancer cell lines, a matrigel invasion assay was used. The levels of phosphorylated IκBα were confirmed in TPA treated ER-positive (MCF-7 and T47D) and ER-negative (MDA-MB-231) breast cancer cell lines and compared the levels to those after pretreatment with compound I. Although induced levels of phosphorylated IκBα varied with the cell line, IκBα phosphorylation was eliminated by compound I treatment in all three breast cancer cell lines. Compound I also produced no effect on the estrogen receptor activity in the ER-positive breast cancer cells using ERE promoter luciferase reporter assay. Invasion capacity of breast cancer cells was increased by TPA stimulation compared to DMSO treated vehicle control. […] Following anchorage-independent colony induction in TPA-treated cells without or with compound I, colonies were lysed and measured with CyQuant GR Dye to detect DNA by fluorescence plate reader as a measure of colony count. Total transformed colony numbers were calculated from RFU and cell dose curve of JB6 cells. […]

Binding to the ATP binding pocket of IKKβ (IKKβ [1]): no activity | Inhibition of IKKβ activity, phosphorylation of a peptide substrate (IKKβ [1]; fully activated, phosphorylated IKKβ, 1.25, 2.50, 5.00, and 10.00 μM): does not inhibit | Inhibition of phosphorylation of IκBα peptide substrate catalyzed by IKKβ (IKKβ [2]): no inhibition
SMILES: Cc1cc(N)ccc1N=Nc1ccc(S(=O)(=O)CCOS(=O)(=O)O)cc1 [compound I, 2-(4-((4-amino-2-methylphenyl)diazenyl)phenylsulfonyl)ethyl hydrogen sulfate]
TPA-induced phosphorylation of IKKα/β (IKKα/β; HEK293, compared with IκBα inhibition at 17.0 and 8.5 μM): reduces | TNFα-induced phosphorylation of IKKα/β (IKKα/β; at 1 hour): inhibits | Effect on estrogen receptor activity (estrogen receptor): no effect
